{
  "source": "patent US9586951B2",
  "about": "(FUJIFILM Corporation, priority 2013, dated 2017)",
  "biological_target": "T1, ATM (Homo sapiens, UniProt Q13315)",
  "T1 construct": "detecting phosphorylation of Chk2 in a human non-small cell lung cancer cell line NCI-H460 (ATCC company); host or cells: NCI-H460 human non-small cell lung cancer cells",
  "T1 sequence (Q13315 whole entry)": "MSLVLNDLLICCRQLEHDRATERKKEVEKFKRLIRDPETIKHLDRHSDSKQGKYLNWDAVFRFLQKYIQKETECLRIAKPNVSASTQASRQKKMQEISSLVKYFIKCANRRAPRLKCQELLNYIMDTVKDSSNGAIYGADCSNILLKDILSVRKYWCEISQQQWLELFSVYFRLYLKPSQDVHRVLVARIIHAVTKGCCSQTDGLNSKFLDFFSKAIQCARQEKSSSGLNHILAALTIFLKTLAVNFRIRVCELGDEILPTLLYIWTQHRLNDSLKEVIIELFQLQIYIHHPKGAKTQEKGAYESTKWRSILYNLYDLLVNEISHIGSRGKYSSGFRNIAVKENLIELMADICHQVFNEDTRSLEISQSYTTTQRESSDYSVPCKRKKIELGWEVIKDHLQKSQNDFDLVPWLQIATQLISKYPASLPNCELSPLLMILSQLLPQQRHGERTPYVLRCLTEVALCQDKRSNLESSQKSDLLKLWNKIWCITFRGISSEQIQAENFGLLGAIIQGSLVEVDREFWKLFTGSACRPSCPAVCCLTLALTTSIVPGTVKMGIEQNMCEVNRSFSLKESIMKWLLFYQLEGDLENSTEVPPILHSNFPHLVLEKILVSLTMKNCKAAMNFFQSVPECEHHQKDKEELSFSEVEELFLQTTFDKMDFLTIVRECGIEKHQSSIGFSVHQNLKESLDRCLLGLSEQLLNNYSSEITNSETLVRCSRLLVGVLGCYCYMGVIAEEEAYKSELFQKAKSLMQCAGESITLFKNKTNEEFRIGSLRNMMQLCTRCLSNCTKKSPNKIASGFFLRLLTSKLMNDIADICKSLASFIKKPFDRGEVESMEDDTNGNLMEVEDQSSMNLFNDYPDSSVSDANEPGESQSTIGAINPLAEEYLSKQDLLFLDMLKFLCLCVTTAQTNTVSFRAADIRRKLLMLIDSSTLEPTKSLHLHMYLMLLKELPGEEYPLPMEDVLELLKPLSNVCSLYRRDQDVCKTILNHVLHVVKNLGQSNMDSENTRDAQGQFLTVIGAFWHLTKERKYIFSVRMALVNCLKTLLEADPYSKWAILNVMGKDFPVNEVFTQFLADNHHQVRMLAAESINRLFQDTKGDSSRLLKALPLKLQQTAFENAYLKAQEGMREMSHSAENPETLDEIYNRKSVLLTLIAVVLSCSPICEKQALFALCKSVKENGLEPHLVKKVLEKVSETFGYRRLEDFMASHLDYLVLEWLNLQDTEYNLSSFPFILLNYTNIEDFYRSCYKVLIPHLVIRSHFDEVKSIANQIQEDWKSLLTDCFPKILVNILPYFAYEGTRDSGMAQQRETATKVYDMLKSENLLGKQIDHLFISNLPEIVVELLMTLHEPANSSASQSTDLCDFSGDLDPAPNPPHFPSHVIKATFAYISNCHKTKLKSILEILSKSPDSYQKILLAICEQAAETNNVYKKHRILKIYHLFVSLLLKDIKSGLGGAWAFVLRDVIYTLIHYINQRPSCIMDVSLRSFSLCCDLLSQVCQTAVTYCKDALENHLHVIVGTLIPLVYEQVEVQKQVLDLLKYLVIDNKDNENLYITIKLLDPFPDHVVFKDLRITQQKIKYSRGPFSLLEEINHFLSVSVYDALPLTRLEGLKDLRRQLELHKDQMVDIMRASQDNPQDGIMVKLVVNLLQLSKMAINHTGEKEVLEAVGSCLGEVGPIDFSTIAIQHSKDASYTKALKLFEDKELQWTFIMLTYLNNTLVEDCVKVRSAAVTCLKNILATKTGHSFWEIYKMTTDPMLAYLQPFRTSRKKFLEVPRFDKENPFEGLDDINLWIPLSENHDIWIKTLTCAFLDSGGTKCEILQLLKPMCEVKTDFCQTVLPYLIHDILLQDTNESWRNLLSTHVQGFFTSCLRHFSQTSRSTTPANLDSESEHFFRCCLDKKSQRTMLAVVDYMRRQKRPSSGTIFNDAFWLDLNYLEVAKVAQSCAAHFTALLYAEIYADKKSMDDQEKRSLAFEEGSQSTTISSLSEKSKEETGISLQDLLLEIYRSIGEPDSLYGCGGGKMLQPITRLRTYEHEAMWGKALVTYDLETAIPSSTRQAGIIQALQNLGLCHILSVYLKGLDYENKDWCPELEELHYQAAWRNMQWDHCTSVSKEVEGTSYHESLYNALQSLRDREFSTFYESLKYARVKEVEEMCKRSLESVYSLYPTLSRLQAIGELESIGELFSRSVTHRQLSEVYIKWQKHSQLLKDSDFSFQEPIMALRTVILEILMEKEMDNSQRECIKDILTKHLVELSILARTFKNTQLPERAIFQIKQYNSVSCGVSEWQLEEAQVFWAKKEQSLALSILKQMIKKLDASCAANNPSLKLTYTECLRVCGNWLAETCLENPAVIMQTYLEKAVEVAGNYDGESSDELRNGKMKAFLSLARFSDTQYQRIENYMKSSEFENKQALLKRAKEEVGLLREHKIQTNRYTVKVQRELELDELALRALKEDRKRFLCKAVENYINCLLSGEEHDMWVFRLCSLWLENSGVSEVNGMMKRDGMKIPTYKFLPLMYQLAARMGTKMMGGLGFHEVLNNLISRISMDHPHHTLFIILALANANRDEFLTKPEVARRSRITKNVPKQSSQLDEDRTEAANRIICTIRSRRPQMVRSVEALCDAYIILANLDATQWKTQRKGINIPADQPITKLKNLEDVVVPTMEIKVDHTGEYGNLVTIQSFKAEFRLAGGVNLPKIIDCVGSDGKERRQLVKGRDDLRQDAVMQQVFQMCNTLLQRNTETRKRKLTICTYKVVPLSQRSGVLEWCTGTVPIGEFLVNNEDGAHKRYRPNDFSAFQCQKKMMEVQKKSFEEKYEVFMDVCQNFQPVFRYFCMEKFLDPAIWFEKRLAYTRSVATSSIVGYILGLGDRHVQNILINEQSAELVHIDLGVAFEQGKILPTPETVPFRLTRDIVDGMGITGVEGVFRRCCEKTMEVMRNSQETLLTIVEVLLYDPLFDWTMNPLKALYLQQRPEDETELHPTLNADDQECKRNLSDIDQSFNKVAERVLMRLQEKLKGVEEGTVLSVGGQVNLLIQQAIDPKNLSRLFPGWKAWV",
  "experiment": "ATM inhibition test (phosphorylation of Chk2 generated by ionizing radiation, AlphaScreen SureFire)",
  "assay_type": "cell-based",
  "conditions": "phosphorylated Chk2 in NCI-H460 cells, ionizing radiation 8Gy, 1 hour after test compound treatment; read-out: ATM inhibitory activity",
  "how_it_was_run": "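In NCI-H460 cells, radiation-triggered Chk2 phosphorylation (8Gy, 1 h) is detected by AlphaScreen SureFire following 1 h compound exposure.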",
  "note": "pIC50: −log10 of the molar value.",
  "data": [
    {"compound": "COC[C@H](CN(C(C)C)C(C)C)Nc1ccc2c(c1)Sc1cccc(-c3cc(N4CCOCC4)cc(=O)[nH]3)c1S2", "note": "[Example 1-46-14, (S)-6-(7-((1-(Diisopropylamino)-3-methoxypropan-2-yl)amino)thianthren-1-yl)-4-morpholino pyridin-2(1H)-one]", "values": [
      {"measurement": "pIC50", "result": "6.30 to 7.00"}
    ]},
    {"compound": "COc1cccc(CCN2CCC(Nc3ccc4c(c3)Cc3cccc(-c5cc(N6CCOCC6)cc(=O)[nH]5)c3O4)CC2)c1", "note": "[Example 2-30-11, 6-(7-((1-(3-Methoxyphenethyl)piperidin-4-yl)amino)-9H-xanthen-4-yl)-4-morpholino pyridin-2 (1H)-one]", "values": [
      {"measurement": "pIC50", "result": "6.30 to 7.00"}
    ]},
    {"compound": "CCCC(Nc1ccc2c(c1)Cc1cccc(-c3cc(N4CCOCC4)cc(=O)[nH]3)c1O2)c1cncc(OC)c1", "note": "(stereo not drawn) [Example 2-14-17, 6-(7-((1-(5-Methoxypyridin-3-yl)butyl)amino)-9H-xanthen-4-yl)-4-morpholino pyridin-2(1H)-one]", "values": [
      {"measurement": "pIC50", "result": "6.30 to 7.00"}
    ]},
    {"compound": "CCOC(=O)C(C)Nc1ccc2c(c1)Cc1cccc(-c3cc(N4CCOCC4)cc(=O)[nH]3)c1O2", "note": "(stereo not drawn) [Example 2-14-72, Ethyl 2-((5-(4-morpholino-6-oxo-1,6-dihydropyridin-2-yl)-9H-xanthen-2-yl)amino) propanoate]", "values": [
      {"measurement": "pIC50", "result": "6.30 to 7.00"}
    ]},
    {"compound": "O=c1cc(N2CCOCC2)cc(-c2cccc3c2Oc2ccc(NC4CCN(Cc5cc(C6CC6)ccn5)CC4)cc2C3)[nH]1", "note": "[Example 2-28-30, 6-(7-((1-((4-Cyclopropylpyridin-2-yl)methyl)piperidin-4-yl)amino)-9H-xanthen-4-yl)-4-morpholino pyridin-2(1H)-one]", "values": [
      {"measurement": "pIC50", "result": "6.30 to 7.00"}
    ]},
    {"compound": "CC(Nc1ccc2c(c1)Cc1cccc(-c3cc(N4CCOCC4)cc(=O)[nH]3)c1O2)c1cc(CF)ncn1", "note": "(stereo not drawn) [Example 2-14-65, 6-(7-((1-(6-(Fluoromethyl)pyrimidin-4-yl)ethyl)amino)-9H-xanthen-4-yl)-4-morpholino pyridin-2(1H)-one]", "values": [
      {"measurement": "pIC50", "result": "6.30 to 7.00"}
    ]},
    {"compound": "Cc1ccc(CNc2ccc3c(c2)Cc2ccnc(-c4cc(N5CCOCC5)cc(=O)[nH]4)c2O3)nc1", "note": "[Example 2-42-2, 6-(7-(((5-Methylpyridin-2-yl)methyl)amino)-5H-chromeno[2,3-c]pyridin-1-yl)-4-morpholinopyridin-2(1H)-one]", "values": [
      {"measurement": "pIC50", "result": "6.30 to 7.00"}
    ]},
    {"compound": "Cc1cccc(C(CO)Nc2ccc3c(c2)Sc2cccc(-c4cc(N5CCOCC5)cc(=O)[nH]4)c2S3)n1", "note": "(single isomer, unassigned) [Example 1-12-140-1, 6-(7-((2-hydroxy-1-(6-methylpyridin-2-yl)ethyl)amino)thianthren-1-yl)-4-morpholinopyridin-2(1H)-one]", "values": [
      {"measurement": "pIC50", "result": "6.30 to 7.00"}
    ]},
    {"compound": "CC(=O)Nc1cncc(CNc2ccc3c(c2)Cc2cccc(-c4cc(N5CCOCC5)cc(=O)[nH]4)c2O3)c1", "note": "[Example 2-2-13, N-(5-(((5-(4-Morpholino-6-oxo-1,6-dihydropyridin-2-yl)-9H-xanthen-2-yl)amino)methyl)pyridin-3-yl)acetamide]", "values": [
      {"measurement": "pIC50", "result": "5.70 to 6.30"}
    ]},
    {"compound": "COCCN(CCOC)C[C@@H](COC)Nc1ccc2c(c1)Sc1cccc(-c3cc(N4CCOCC4)cc(=O)[nH]3)c1S2", "note": "[Example 1-46-3, (S)-6-(7-((1-(bis(2-methoxyethyl)amino)-3-methoxypropan-2-yl)amino)thianthren-1-yl)-4-morpholinopyridin-2(1H)-one]", "values": [
      {"measurement": "pIC50", "result": "6.30 to 7.00"}
    ]},
    {"compound": "4-Morpholino-6-(7-((1-(5- (morpholino methyl) pyrimidin-2-yl)ethyl) amino)thianthren-1- yl)pyridin-2(1H)-one [Example 1-12-95]", "values": [
      {"measurement": "pIC50", "result": "6.30 to 7.00"}
    ]},
    {"compound": "CCNc1cccc(CNc2ccc3c(c2)Cc2cccc(-c4cc(N5CCOCC5)cc(=O)[nH]4)c2O3)n1", "note": "[Example 2-6-2, 6-(7-(((6-(Ethylamino)pyridin-2-yl)methyl)amino)-9H-xanthen-4-yl)-4-morpholinopyridin-2(1H)-one]", "values": [
      {"measurement": "pIC50", "result": "6.30 to 7.00"}
    ]},
    {"compound": "O=c1cc(N2CCOCC2)cc(-c2cccc3c2Sc2ccc(NCCN4CCCC4)cc2S3)[nH]1", "note": "[Example 1-10-11]", "values": [
      {"measurement": "pIC50", "result": "6.30 to 7.00"}
    ]},
    {"compound": "Cc1cc(C(C)Nc2ccc3c(c2)Cc2cccc(-c4cc(N5CCOCC5)cc(=O)[nH]4)c2O3)ccn1", "note": "(stereo not drawn) [Example 2-14-28, 6-(7-((1-(2-Methylpyridin-4-yl)ethyl)amino)-9H-xanthen-4-yl)-4-morpholino pyridin-2(1H)-one]", "values": [
      {"measurement": "pIC50", "result": "6.30 to 7.00"}
    ]},
    {"compound": "O=c1cc(N2CCOCC2)cc(-c2cc(F)cc3c2Oc2ccc(NCc4cccc(Cl)n4)cc2C3)[nH]1", "note": "[Example 2-48-2, 6-(7-(((6-Chloropyridin-2-yl)methyl)amino)-2-fluoro-9H-xanthen-4-yl)-4-morpholinopyridin-2(1H)-one]", "values": [
      {"measurement": "pIC50", "result": "6.30 to 7.00"}
    ]},
    {"compound": "O=c1cc(N2CCOCC2)cc(-c2cccc3c2Oc2ccc(NCc4cncc(C5CCCC5)c4)cc2C3)[nH]1", "note": "[Example 2-2-66, 6-(7-(((5-Cyclopentylpyridin-3-yl)methyl)amino)-9H-xanthen-4-yl)-4-morpholino pyridin-2(1H)-one]", "values": [
      {"measurement": "pIC50", "result": "> 7.00"}
    ]},
    {"compound": "O=c1cc(N2CCOCC2)cc(-c2cccc3c2Oc2ccc(NCc4cncc(C5=CCCC5)c4)cc2C3)[nH]1", "note": "[Example 2-2-61, 6-(7-(((5-(Cyclopent-1-en-1-yl)pyridin-3-yl)methyl)amino)-9H-xanthen-4-yl)-4-morpholino pyridin-2(1H)-one]", "values": [
      {"measurement": "pIC50", "result": "6.30 to 7.00"}
    ]},
    {"compound": "Cc1cc(C(C)Nc2ccc3c(c2)Cc2cccc(-c4cc(N5CCOCC5)cc(=O)[nH]4)c2O3)ncn1", "note": "(stereo not drawn) [Example 2-14-52, 6-(7-((1-(6-Methylpyrimidin-4-yl)ethyl)amino)-9H-xanthen-4-yl)-4-morpholino pyridin-2 (1H)-one]", "values": [
      {"measurement": "pIC50", "result": "6.30 to 7.00"}
    ]},
    {"compound": "Cc1ccncc1CNc1ccc2c(c1)Cc1cccc(-c3cc(N4CCOCC4)cc(=O)[nH]3)c1O2", "note": "[Example 2-14-5, 6-(7-(((4-Methylpyridin-3-yl)methyl)amino)-9H-xanthen-4-yl)-4-morpholino pyridin-2(1H)-one]", "values": [
      {"measurement": "pIC50", "result": "6.30 to 7.00"}
    ]},
    {"compound": "O=c1cc(N2CCOCC2)cc(-c2cccc3c2Sc2ccc(NCCN4CCC(F)(F)C4)cc2S3)[nH]1", "note": "[Example 1-10-2, 6-(7-((2-(3,3-Difluoropyrrolidin-1-yl)ethyl)amino)thianthren-1-yl)-4-morpholinopyridin-2(1H)-one]", "values": [
      {"measurement": "pIC50", "result": "6.30 to 7.00"}
    ]},
    {"compound": "CCC(CNc1ccc2c(c1)Sc1cccc(-c3cc(N4CCOCC4)cc(=O)[nH]3)c1S2)N1CCOCC1", "note": "(stereo not drawn) [Example 1-9-1, 4-morpholino-6-(7-((2-morpholinobutyl)amino)thianthren-1-yl)pyridin-2(1H)-one]", "values": [
      {"measurement": "pIC50", "result": "6.30 to 7.00"}
    ]},
    {"compound": "CNCCC(Nc1ccc2c(c1)Sc1cccc(-c3cc(N4CCOCC4)cc(=O)[nH]3)c1S2)c1cnc(C)cn1", "note": "(stereo not drawn) [Example 1-20-11, 6-(7-((3-(Methylamino)-1-(5-methylpyrazin-2-yl)propyl)amino)thianthren-1-yl)-4-morpholino pyridin-2 (1H)-one]", "values": [
      {"measurement": "pIC50", "result": "5.70 to 6.30"}
    ]},
    {"compound": "CN1CCC[C@H]1CNc1ccc2c(c1)Sc1cccc(-c3cc(N4CCOCC4)cc(=O)[nH]3)c1S2", "note": "[Example 1-3, (S)-6-(7-(((1-methylpyrrolidin-2-yl)methyl)amino)thianthren-1-yl)-4-morpholinopyridin-2(1H)-one]", "values": [
      {"measurement": "pIC50", "result": "6.30 to 7.00"}
    ]},
    {"compound": "COc1ccc(CCN2CCCC(Nc3ccc4c(c3)Sc3cccc(-c5cc(N6CCOCC6)cc(=O)[nH]5)c3O4)CC2)cc1", "note": "(stereo not drawn) [Example 4-7, 6-(8-((1-(4-Methoxyphenethyl)azepan-4-yl)amino)phenoxathiin-4-yl)-4-morpholinopyridin-2(1H)-one]", "values": [
      {"measurement": "pIC50", "result": "6.30 to 7.00"}
    ]},
    {"compound": "COC(=O)CCCCN1CCC(Nc2ccc3c(c2)Cc2cccc(-c4cc(N5CCOCC5)cc(=O)[nH]4)c2O3)CC1", "note": "[Example 2-30-16, Methyl 5-(4-((5-(4-morpholino-6-oxo-1,6-dihydropyridin-2-yl)-9H-xanthen-2-yl)amino)piperidin-1-yl)pentanoate]", "values": [
      {"measurement": "pIC50", "result": "6.30 to 7.00"}
    ]},
    {"compound": "Cc1ccc(C(Nc2ccc3c(c2)Sc2cccc(-c4cc(N5CCOCC5)cc(=O)[nH]4)c2S3)C2CNCCO2)nc1", "note": "(single isomer, unassigned) [Example 1-55-1, 6-(7-(((5-methylpyridin-2-yl)(morpholin-2-yl)methyl)amino)thianthren-1-yl)-4-morpholinopyridin-2(1H)-one]", "values": [
      {"measurement": "pIC50", "result": "> 7.00"}
    ]},
    {"compound": "COc1ccc(CCN2CCC(Nc3ccc4c(c3)Cc3ccnc(-c5cc(N6CCOCC6)cc(=O)[nH]5)c3O4)CC2)cc1", "note": "[Example 2-41-5, 6-(7-((1-(4-Methoxyphenethyl)piperidin-4-yl)amino)-5H-chromeno[2,3-c]pyridin-1-yl)-4-morpholino pyridin-2(1H)-one]", "values": [
      {"measurement": "pIC50", "result": "6.30 to 7.00"}
    ]},
    {"compound": "CC(Nc1ccc2c(c1)Sc1cccc(-c3cc(N4CCOCC4)cc(=O)[nH]3)c1S2)c1ncccn1", "note": "(stereo not drawn) [Example 1-12-68, 4-Morpholino-6-(7-((1-(pyrimidin-2-yl)ethyl)amino)thianthren-1-yl)pyridin-2 (1H)-one]", "values": [
      {"measurement": "pIC50", "result": "6.30 to 7.00"}
    ]},
    {"compound": "CC(C)(C)OC(=O)N1CCC(Nc2ccc3c(c2)Sc2cccc(-c4cc(N5CCOCC5)cc(=O)[nH]4)c2O3)CC1", "note": "[Example 4-8-3, tent-Butyl 4-((6-(4-morpholino-6-oxo-1,6-dihydropyridin-2-yl)phenoxathiin-2-yl)amino) piperidin-l-carboxylate]", "values": [
      {"measurement": "pIC50", "result": "6.30 to 7.00"}
    ]},
    {"compound": "O=c1cc(N2CCOCC2)cc(-c2cccc3c2Oc2ccc(NC4CCN(Cc5cncc(Cl)c5)CC4)cc2C3)[nH]1", "note": "[Example 2-28-17, 6-(7-((1-((5-Chloropyridin-3-yl)methyl)piperidin-4-yl)amino)-9H-xanthen-4-yl)-4-morpholino pyridin-2(1H)-one]", "values": [
      {"measurement": "pIC50", "result": "6.30 to 7.00"}
    ]},
    {"compound": "CC(=O)N1CCC(Nc2ccc3c(c2)Sc2cccc(-c4cc(N5CCOCC5)cc(=O)[nH]4)c2S3)CC1", "note": "[Example 1-12-115, 6-(7-((1-Acetylpiperidin-4-yl)amino)thianthren-1-yl)-4-morpholino pyridin-2 (1H)-one]", "values": [
      {"measurement": "pIC50", "result": "6.30 to 7.00"}
    ]},
    {"compound": "CC(CCN1CCCC1)Nc1ccc2c(c1)Sc1cccc(-c3cc(N4CCOCC4)cc(=O)[nH]3)c1S2", "note": "(stereo not drawn) [Example 1-42-4, 4-Morpholino-6-(7-((4-(pyrrolidin-1-yl)butan-2-yl)amino)thianthren-1-yl) pyridin-2(1H)-one]", "values": [
      {"measurement": "pIC50", "result": "6.30 to 7.00"}
    ]},
    {"compound": "O=c1cc(N2CCOCC2)cc(-c2cccc3c2Sc2ccc(NCc4cncc(-n5ccnc5)c4)cc2S3)[nH]1", "note": "[Example 1-12-20, 6-(7-(((5-(1H-Imidazol-1-yl)pyridin-3-yl)methyl)amino)thianthren-1-yl)-4-morpholino pyridin-2(1H)-one]", "values": [
      {"measurement": "pIC50", "result": "> 7.00"}
    ]}
  ]
}
